Laboratory results from patent US10994006B2, “Desensitizing mast cells by co-presentation of antigens with high affinity mast cell siglec ligands” (The Scripps Research Institute, priority 2016, dated 2021).
“Also recorded” adds a separate entry of the source.

Experiments:
[1] = system: HL-60 cells; assay: HL-60 cell binding to arrayed compound; parameters: species or system human; settings: AML cell line expressing intermediate levels of hCD33
Source text: This increase in avidity was further supported by the fact that HL-60 cells, an AML cell line expressing intermediate levels of hCD33, bound to compound 22.

[2] = molecular target: T1, hCD33 (Homo sapiens, UniProt P20138); assay: solution-phase inhibition assay, flow cytometry: binding of fluorescently labelled hCD33 to ligand-coated beads
Description: Glycan microarrays may provide only qualitative measures of avidity and selectivity. Therefore, the relative affinities of these compounds were analyzed using solution-phase inhibition assays where IC50 values were determined using a flow cytometry assay. The flow cytometry assay evaluated whether the compounds were able to prevent the binding of fluorescently labelled hCD33 to ligand-coated beads, and these values were used to determine the relative inhibitory potency (rIP) for each compound compared to the native sialoside (rIP=1).
Target sequence in this assay (P20138 18-364): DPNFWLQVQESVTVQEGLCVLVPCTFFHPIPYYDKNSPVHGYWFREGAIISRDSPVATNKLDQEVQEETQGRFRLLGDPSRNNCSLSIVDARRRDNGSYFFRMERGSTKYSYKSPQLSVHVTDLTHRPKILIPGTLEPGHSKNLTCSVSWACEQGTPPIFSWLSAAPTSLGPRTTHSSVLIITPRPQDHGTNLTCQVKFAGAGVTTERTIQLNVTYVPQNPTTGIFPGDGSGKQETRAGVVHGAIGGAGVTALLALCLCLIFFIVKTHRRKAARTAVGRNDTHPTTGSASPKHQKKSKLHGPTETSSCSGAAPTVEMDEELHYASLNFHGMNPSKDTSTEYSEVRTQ

[3] = molecular target: T1, hCD33; assay: glycan microarray binding of hCD33-Fc; parameters: made in house
Target sequence in this assay (P20138 18-259 limits assumed): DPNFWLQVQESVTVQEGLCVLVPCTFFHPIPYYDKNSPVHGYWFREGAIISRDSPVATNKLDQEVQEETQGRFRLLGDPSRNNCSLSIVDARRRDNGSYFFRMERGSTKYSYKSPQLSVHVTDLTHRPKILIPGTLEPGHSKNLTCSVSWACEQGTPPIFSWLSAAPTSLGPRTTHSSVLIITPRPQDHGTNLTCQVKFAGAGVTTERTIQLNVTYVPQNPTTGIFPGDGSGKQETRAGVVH

[4] = molecular target: Siglec-8 (Homo sapiens, UniProt Q9NYZ4); settings: Bochner et al. 2005; Floyd et al. 2000; cited from earlier work
Chain of Siglec-8 (Q9NYZ4 17-499): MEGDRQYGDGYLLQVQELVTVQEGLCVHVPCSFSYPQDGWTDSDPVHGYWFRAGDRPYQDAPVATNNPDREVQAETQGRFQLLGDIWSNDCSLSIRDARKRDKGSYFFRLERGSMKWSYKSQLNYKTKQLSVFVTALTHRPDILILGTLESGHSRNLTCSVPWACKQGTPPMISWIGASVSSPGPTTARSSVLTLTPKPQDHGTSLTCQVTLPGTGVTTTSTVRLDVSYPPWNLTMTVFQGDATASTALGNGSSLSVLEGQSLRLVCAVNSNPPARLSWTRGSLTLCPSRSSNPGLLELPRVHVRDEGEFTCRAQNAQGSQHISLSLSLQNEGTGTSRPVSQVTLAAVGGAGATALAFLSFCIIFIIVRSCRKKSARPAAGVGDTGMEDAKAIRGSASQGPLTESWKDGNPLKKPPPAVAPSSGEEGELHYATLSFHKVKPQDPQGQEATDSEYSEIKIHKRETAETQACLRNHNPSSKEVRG

Row | increase in affinity relative to the native sialoside ([2]; hCD33) | IC50 ([2]; prevention of binding of fluorescently labelled hCD33 to ligand-coated beads) | rIP value ([2]; relative inhibitory potency compared to the native sialoside (rIP=1)) | Compound | binding of HL-60 cells to compound [1] | selectivity for hCD33 over hCD22 and mSn ([3]; glycan microarray) | binding (affinity/avidity, selectivity) to hCD33 on glycan array ([3]; printed at 100 μM or 3 μM, hCD33-Fc pre-complexed with R-PE anti-human IgG) | binding to Siglec-8 [4]
1 | 350 fold | 11 µM | 351 | Cc1cc(C(=O)NC[C@@H](O)[C@@H](O)C2O[C@@](OCC3O[C@@H](O[C@@H]4C(CO)O[C@@H](OCCN)C(O)[C@H]4O)C(O)[C@@H](O)[C@H]3O)(C(=O)O)C[C@@H](O)[C@H]2NC(=O)Cn2cc(C3CCCCC3)nn2)cc(C)c1O (stereo partly shown) [Compound 22] | bound | showed increased selectivity for hCD33 over hCD22 and mSn | exhibited superior properties compared to the monosubstituted compounds; also recorded: exhibited higher avidity than both parent compounds | 
2 |  |  |  | Neu5Acα2-3[6-SO4]Galβ1-4[Fucα1-3]GlcNAc [6′-sulfo-sLe^X] |  |  |  | binds to
